The source of these data is US7622448B2, “Compositions suitable for topical application to the skin” (L'Oreal, priority 2003, dated 2009).

This test has as its system isolated stratum corneum. The test is described as follows: Desquamating effect: counting corneocytes released from isolated stratum corneum. The note with it: compound 2% by weight in 0.1% Triton X100 PBS buffer pH 7.4, 37° C., 24 hours; for Average number of corneocytes released, 1st skin sample: control 1; for Average number of corneocytes released, 2nd skin sample: control 4. Here is the method: The test consists in counting the corneocytes released after incubation of batches of isolated stratum corneum in the presence of three test compounds, corresponding to compounds F, G and K of Table 1.
Compounds F, G and K were each dissolved to 2% by weight in a 0.1% Triton X100 PBS buffer at pH 7.4.
Two different samples of stratum corneum isolated by trypsin/heat from plastic surgeries were used. SCI discs 4 mm in diameter were cut out using a punch and placed in the bottom of a 96-well dish. 50 μl of buffer containing the test compound were added to each well. Controls without compound were prepared. The tests were repeated three times. The incubation was performed at 37° C. with stirring for 24 hours. 10 μl were then taken up and placed in a Mallassez cell. The freed corneocytes were counted by microscope.

Each structure is given as a SMILES string.

With `CNC(=O)C(Cc1ccccc1)(C(=O)NC)[C@@H]1O[C@H](C)[C@H](O)[C@H](O)[C@H]1O` [Compound F, 2-benzyl-N,N′-dimethyl-2-(3,4,5-trihydroxy-6-methyltetrahydropyran-2-yl)malonamide], the “Average number of corneocytes released, 1st skin sample” value (“Average number … 1st skin sample” below) is 5 and the “Average number of corneocytes released, 2nd skin sample” value (from here on “Average number … 2nd skin sample”) was 12.

As to `CNC(=O)C(Cc1ccccc1)(C(=O)NC)[C@@H]1OC[C@@H](O)[C@H](O)[C@H]1O` [G], the “Average number … 1st skin sample” value amounted to 13 and the “Average number … 2nd skin sample” value worked out at 12.

For the compound `CNC(=O)C(Cc1ccccc1)(C(=O)NC)[C@@H]1O[C@H](CO)[C@@H](O)[C@H](O)[C@H]1O` [K], the “Average number … 1st skin sample” value is on record as 7 and the “Average number … 2nd skin sample” value was found to be 5.
